# Entries after “also recorded” stand apart in the source; their conditions may differ.
# Experiments:
# [1] = Oxidative stability (Oxipres, high-pressure oxygen bomb method); type: physicochemical; conditions: antioxidants 0.33%
# Description: Due to their high oil content, oleogels are characterized by instability in an oxygen environment, so at the beginning of the study, an oxidative stability test of the oleogel was performed, which was compared with a pure sunflower oil sample and an oil sample containing TBHQ (tertiary butylhydroquinone).
# To determine the oxidative stability, the oleogel was compared with a sunflower oil alone (blank sample) and a sample of sunflower oil with the addition of TBHQ (tertiary butylhydroquinone), which is widely used as an effective food antioxidant. TBHQ was added to the oil at a concentration equivalent to the concentration of polyphenols in the oleogel—0.33% (determined in previous studies).
# An Oxipres ML 3,047,312 machine (Mikrolab Aarhus, Aarhus, Denmark) was used to determine oxidative stability. This equipment is a modification of the high-pressure oxygen bomb method (by standard ASTM D942), the principle of which is to oxidize substrates with oxygen. Enough sample was weighed into glass containers to contain 5 g of substrate. […] The protection factor (PF) is calculated according to the formula PF = […], where IPx is the induction period for the sample with antioxidant additives, hours; IPk is the induction period for the sample without antioxidant additives or the “blank sample”, hours. Using that formula, the oxidative stability was determined and compared among samples.
# [2] = Pozharitskaya study: betulin in blood plasma after endotracheal administration; type: in vivo, rat; conditions: cross-study comparison
# [3] = parameters: method as in PMID 27155877; conditions: endotracheal route; nanoparticles 25.2 mg/kg; cited from earlier work
# [4] = Content of BBE compounds in rat tissues after repeated peroral oleogel administration; conditions: for Content in heart, liver, kidney, brain tissues: oleogel half dose daily 7 days, 24 h after last administration, level of quantification 50 ng/g
# [5] = male, Wistar, rat, in vivo
# [6] = oral in olive oil, 200 mg/kg, mice; cited from earlier work
# [7] = Betulin, lupeol and betulinic acid in rat blood plasma after peroral administration of BBE dispersed systems (LC/MS/MS)
# [8] = oleogel half dose daily for 7 days
compound,measurement,setting,value
"CC(C)(C)c1cc(O)ccc1O [TBHQ in oil, tertiary butylhydroquinone]",Induction period,"[1]; oxygen 8–8.5 bar, 120 °C",3.5 h
same,Protection factor,[1]; vs blank sunflower oil,2.7
C=C(C)[C@@H]1CC[C@]2(CO)CC[C@]3(C)[C@H](CC[C@@H]4[C@@]5(C)CC[C@H](O)C(C)(C)[C@@H]5CC[C@]43C)[C@@H]12 [betulin powder],"Plasma level, times higher than aqueous suspension of BBE powder in this study",[2],~1000 times
same,Betulin in blood plasma,[3],6.9 µg/mL
C=C(C)[C@@H]1CC[C@]2(CO)CC[C@]3(C)[C@H](CC[C@@H]4[C@@]5(C)CC[C@H](O)C(C)(C)[C@@H]5CC[C@]43C)[C@@H]12 [betulin],"Content in heart, liver, kidney, brain tissues",[4],not detected; also recorded: not found
C=C(C)[C@@H]1CC[C@]2(C(=O)O)CC[C@]3(C)[C@H](CC[C@@H]4[C@@]5(C)CC[C@H](O)C(C)(C)[C@@H]5CC[C@]43C)[C@@H]12 [betulinic acid],"Content in heart, liver, kidney, brain tissues",[4],not detected; also recorded: not found
C=C(C)[C@@H]1CC[C@]2(C)CC[C@]3(C)[C@H](CC[C@@H]4[C@@]5(C)CC[C@H](O)C(C)(C)[C@@H]5CC[C@]43C)[C@@H]12 [lupeol],Lupeol content in heart,[5],about 250 ng/g tissue
same,Lupeol concentration in blood plasma,[6],6 ng/µL
same,Lupeol content in brain,[4]; [8],not found
same,Lupeol content in kidneys,[4]; [8],about 250 ng/g tissue
same,Lupeol content in liver,[4]; [8],about 21 ng/g tissue
same,"Lupeol bioavailability from the oleogel, times better than betulin bioavailability",[7]; considering the lower dose of lupeol,20 times
same,"Lupeol exposure, times higher than betulin exposure",[7]; peroral BBE systems,about 3 times

# Reference: PMC10780823, “Innovative Approach to Enhance Bioavailability of Birch Bark Extracts: Novel Method of Oleogel Development Contrasted with Other Dispersed Systems” (Plants, 2024)
